The results in this text go back to PubChem BioAssay AID651772 (Broad Institute, 2012).

SMILES strings stand for the structures. “And” between values parts separate entries of the source, which are not always exact repeats. Identical values can stand only once. Inconclusive results are not listed. The source made the active and inactive calls.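 Rule for the calls: active = compounds whose fitted curve reaches 40% higher CDK2 Ct shift, meaning less CDK2 mRNA, within twice the top dose; inconclusive = flat curve with 30 to 70% opposite effect, or poor fit; inactive = the rest.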

Test [1] is described as follows: suppression of MITF target gene CDK2 mRNA, dose response, orthogonal assay for MITF inhibitor project, cell-based, SK-MEL-5, RT-qPCR, dry powder samples (AID 651772). Particulars: SK-MEL-5 CDK2 mRNA, RT-qPCR delta-delta-Ct, overnight. For orientation: Quantitative PCR measures a nucleic acid by following its amplification.
Test [2] deals with SK-MEL-5 CDK2 mRNA, RT-qPCR delta-delta-Ct, overnight. The test is described as above.

For `NC1=C(NS(=O)(=O)c2ccc(Br)s2)C(=O)c2ccccc2C1=O`, the result in test [1] was inactive.

As to `NC1=C(NS(=O)(=O)c2ccccc2)C(=O)c2ccccc2C1=O`, in test [2], the AC40 is 4.39 µM.

As to `COC1=C(NS(=O)(=O)c2ccccc2)C(=O)c2ccccc2C1=O`, the AC40 in test [2] was 3.5 µM.

Turning to `CN1CCN(C2=C(Nc3ccc(F)cc3F)C(=O)c3ccccc3C2=O)CC1`, the AC40 in test [2] is 2.45 µM.

Turning to `O=C1C=C(Nc2ccccc2)C(=O)c2ccccc21`, the AC40 in test [2] is 0.571 µM and 0.394 µM.

Consider `NC1=CC(=O)c2ccccc2C1=O`, for which the AC40 in test [2] is 0.3 µM.

As to `NC1=C(NS(=O)(=O)c2ccc(Br)cc2)C(=O)c2ccccc2C1=O`, in test [2], the AC40 is 9.61 µM.

For `NC1=C(NC(=O)c2ccccc2)C(=O)c2ccccc2C1=O`, in test [2], the AC40 is 0.882 µM.

On to `CCN1CCN(C2=C(Nc3ccc(F)cc3F)C(=O)c3ccccc3C2=O)CC1`, for which the AC40 in test [2] was 1.41 µM.

Take `NC1=C(NS(=O)(=O)c2cccs2)C(=O)c2ccccc2C1=O`: the AC40 in test [2] is 1.98 µM.

Take `CC(C)N1CCN(C2=C(Nc3ccc(F)cc3)C(=O)c3ccccc3C2=O)CC1`: the AC40 in test [2] was 6.51 µM.

Turning to `O=C(NC1=C(Cl)C(=O)c2ccccc2C1=O)c1ccccc1`, the AC40 in test [2] was 0.203 µM.

As to `C=CCNC1=C(Cl)C(=O)c2ccccc2C1=O`, the AC40 in test [2] is 1.46 µM.

For the compound `O=C1C(Nc2ccc(Cl)cc2)=C(N2CCCC2)C(=O)c2ccccc21`, in test [2], the AC40 is 9.91 µM.

As to `CN1CCN(C2=C(NS(=O)(=O)c3ccc(Br)s3)C(=O)c3ccccc3C2=O)CC1`, the AC40 in test [2] was 7.94 µM.

`CCN1CCN(C2=C(NS(=O)(=O)c3ccc(Br)cc3)C(=O)c3ccccc3C2=O)CC1`: the AC40 in test [2] is 14.1 µM.

Consider `O=C1C(Nc2ccc(F)cc2)=C(N2CCCCC2)C(=O)c2ccccc21`, for which the AC40 in test [2] was 8.22 µM.

Take `NS(=O)(=O)c1ccc(NC2=CC(=O)c3ccccc3C2=O)cc1`: in test [2], the AC40 was 0.141 µM.

Regarding `COC1=C(NS(=O)(=O)c2ccc(Br)cc2)C(=O)c2ccccc2C1=O`, in test [2], the AC40 is 4.29 µM.

On to `CCN1CCN(C2=C(NC(=O)c3ccccc3)C(=O)c3ccccc3C2=O)CC1`, for which the AC40 in test [2] was 2.41 µM.

For `CC(C)N1CCN(C2=C(Nc3ccc(F)cc3F)C(=O)c3ccccc3C2=O)CC1`, in test [2], the AC40 is 1.77 µM.

For the compound `O=C1C=C(NS(=O)(=O)c2cccs2)C(=O)c2ccccc21`, the AC40 in test [2] was 0.339 µM.

`O=C1C(Nc2ccccc2)=C(c2ccccc2)C(=O)c2ccccc21`: the AC40 in test [2] was 7.06 µM.

Consider `O=C1C=C(NS(=O)(=O)c2ccc(Br)cc2)C(=O)c2ccccc21`, for which the AC40 in test [2] was 0.358 µM.

With `COC1=C(NS(=O)(=O)c2cccs2)C(=O)c2ccccc2C1=O`, the AC40 in test [2] was 9.34 µM.

For `O=C1C=C(Nc2ccc([N+](=O)[O-])c(C(F)(F)F)c2)C(=O)c2ccccc21`, in test [2], the AC40 was 0.0787 µM.

For the compound `COC1=C(Nc2ccccc2)C(=O)c2ccccc2C1=O`, in test [2], the AC40 was 0.204 µM.

Regarding `O=C1C=C(NS(=O)(=O)c2ccccc2)C(=O)c2ccccc21`, the AC40 in test [2] was 0.138 µM.

Consider `O=C1C(NS(=O)(=O)c2cccs2)=C(c2ccccc2)C(=O)c2ccccc21`, for which the AC40 in test [2] is 3.79 µM.

As to `Cc1nc2ccccc2n1/N=C/c1ccc([N+](=O)[O-])s1`, the AC40 in test [2] was 2.92 µM.
